The results in this text go back to ChEMBL document CHEMBL1909046, “DrugMatrix in vitro pharmacology data”.

Structures are written as SMILES.

Test [1] deals with T1, Receptor-type tyrosine-protein phosphatase C (Homo sapiens, UniProt P08575).
T1 sequence (P08575 whole entry): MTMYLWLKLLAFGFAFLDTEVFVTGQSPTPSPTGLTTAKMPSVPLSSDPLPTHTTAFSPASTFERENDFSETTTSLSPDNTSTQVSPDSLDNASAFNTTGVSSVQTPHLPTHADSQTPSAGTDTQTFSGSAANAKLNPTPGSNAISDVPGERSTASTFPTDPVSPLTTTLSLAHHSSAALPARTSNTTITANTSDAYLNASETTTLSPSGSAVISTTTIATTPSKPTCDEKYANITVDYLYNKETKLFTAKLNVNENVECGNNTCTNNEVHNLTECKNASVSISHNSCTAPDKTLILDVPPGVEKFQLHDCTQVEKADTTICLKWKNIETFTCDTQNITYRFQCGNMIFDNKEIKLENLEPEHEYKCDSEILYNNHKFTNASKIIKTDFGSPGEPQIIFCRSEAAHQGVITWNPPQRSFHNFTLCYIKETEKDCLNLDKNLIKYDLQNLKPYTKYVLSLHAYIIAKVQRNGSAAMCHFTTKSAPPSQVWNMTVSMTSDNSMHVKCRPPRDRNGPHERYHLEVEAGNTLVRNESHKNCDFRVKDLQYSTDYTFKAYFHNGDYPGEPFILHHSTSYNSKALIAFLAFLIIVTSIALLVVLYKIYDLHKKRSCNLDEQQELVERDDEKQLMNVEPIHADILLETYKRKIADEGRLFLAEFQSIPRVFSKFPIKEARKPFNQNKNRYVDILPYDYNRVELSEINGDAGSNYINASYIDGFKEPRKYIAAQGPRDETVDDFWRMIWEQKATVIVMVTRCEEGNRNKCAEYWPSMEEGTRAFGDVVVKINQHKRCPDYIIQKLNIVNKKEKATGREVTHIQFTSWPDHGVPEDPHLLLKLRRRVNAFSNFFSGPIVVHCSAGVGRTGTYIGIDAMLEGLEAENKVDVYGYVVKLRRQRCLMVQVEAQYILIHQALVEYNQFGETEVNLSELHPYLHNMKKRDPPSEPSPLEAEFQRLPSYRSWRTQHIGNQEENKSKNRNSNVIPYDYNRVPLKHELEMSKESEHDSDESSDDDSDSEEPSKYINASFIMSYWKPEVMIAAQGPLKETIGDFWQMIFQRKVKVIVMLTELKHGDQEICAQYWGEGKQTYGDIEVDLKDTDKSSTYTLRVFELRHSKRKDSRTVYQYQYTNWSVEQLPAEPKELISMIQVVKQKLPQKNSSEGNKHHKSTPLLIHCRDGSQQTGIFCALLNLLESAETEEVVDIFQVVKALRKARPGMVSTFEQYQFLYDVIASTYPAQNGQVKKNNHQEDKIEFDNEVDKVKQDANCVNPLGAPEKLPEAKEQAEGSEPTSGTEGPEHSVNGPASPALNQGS
Further details: species or system Escherichia coli.

A short description of test [2]: DRUGMATRIX: Glutamate, Kainate radioligand binding (ligand: [3H] Kainic acid). As to conditions: Not Active = under 50% inhibition at 10 µM. It is filed as cell membranes, Rattus norvegicus, Wistar, Brain, Membrane.
Test [3] has as its target T2, Cysteinyl leukotriene receptor 1 (Homo sapiens, UniProt Q9Y271). Further: in other assays of this panel Not Active means under 50% inhibition at 10 µM.
T2 sequence (Q9Y271 whole entry): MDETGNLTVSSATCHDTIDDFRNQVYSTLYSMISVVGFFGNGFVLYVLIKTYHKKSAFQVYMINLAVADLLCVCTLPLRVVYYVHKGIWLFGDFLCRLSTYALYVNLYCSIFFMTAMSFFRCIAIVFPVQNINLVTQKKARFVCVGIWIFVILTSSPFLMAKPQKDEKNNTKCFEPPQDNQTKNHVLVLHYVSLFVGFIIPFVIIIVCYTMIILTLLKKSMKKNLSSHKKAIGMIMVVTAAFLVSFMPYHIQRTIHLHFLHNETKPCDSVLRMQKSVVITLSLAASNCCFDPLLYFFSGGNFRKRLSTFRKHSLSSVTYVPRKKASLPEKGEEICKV
It counts as cell membranes, CHO-K1, Membrane.

The target of test [4] is T3, Vasoactive intestinal polypeptide receptor 1 (Homo sapiens, UniProt P32241). Further: in other assays of this panel Not Active means under 50% inhibition at 10 µM.
T3 sequence (P32241 whole entry): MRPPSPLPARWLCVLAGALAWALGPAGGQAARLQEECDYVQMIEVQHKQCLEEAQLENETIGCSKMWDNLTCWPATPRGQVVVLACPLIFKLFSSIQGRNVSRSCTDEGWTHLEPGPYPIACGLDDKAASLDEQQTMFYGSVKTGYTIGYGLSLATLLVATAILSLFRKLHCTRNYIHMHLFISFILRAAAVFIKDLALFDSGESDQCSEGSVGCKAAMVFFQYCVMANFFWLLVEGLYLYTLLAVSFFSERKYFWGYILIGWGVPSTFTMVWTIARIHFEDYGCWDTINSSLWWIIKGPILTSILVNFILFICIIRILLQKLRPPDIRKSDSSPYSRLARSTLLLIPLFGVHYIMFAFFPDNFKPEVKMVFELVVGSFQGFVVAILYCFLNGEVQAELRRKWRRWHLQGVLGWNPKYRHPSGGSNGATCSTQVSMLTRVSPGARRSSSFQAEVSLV
It counts as cell membranes, Membrane. As to conditions: ht-29.

Test [5] is described as follows: DRUGMATRIX: Calcium Channel Type L, Phenylalkylamine radioligand binding (ligand: [3H] (-)-Desmethoxyverapamil (D-888)). It counts as cell membranes, Rattus norvegicus, Wistar, Brain, Membrane. As to conditions: Not Active = under 50% inhibition at 10 µM.
A short description of test [6]: DRUGMATRIX: ATPase, Na+/K+ enzyme inhibition (substrate: ATP). It is filed as tissue-based, Sus scrofa, Heart. The conditions noted are these: Not Active = under 50% inhibition at 10 µM.
A further test concerns the target T4, Substance-K receptor (Homo sapiens, UniProt P21452). Further: in other assays of this panel Not Active means under 50% inhibition at 10 µM.
T4 sequence (P21452 whole entry): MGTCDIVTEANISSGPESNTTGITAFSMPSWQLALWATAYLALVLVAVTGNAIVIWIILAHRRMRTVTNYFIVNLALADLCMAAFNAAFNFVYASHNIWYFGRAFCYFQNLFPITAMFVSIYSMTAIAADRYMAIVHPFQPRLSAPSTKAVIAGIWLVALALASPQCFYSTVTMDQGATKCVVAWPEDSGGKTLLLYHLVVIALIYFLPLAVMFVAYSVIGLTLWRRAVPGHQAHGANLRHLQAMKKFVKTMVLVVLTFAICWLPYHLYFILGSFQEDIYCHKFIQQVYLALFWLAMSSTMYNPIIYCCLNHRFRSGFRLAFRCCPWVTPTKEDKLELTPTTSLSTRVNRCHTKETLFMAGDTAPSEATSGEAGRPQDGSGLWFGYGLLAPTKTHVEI
It counts as cell membranes, CHO, Membrane. As to conditions: for Ki: read-out: Ki.

In test [7] the target is Beta-3 adrenergic receptor (Homo sapiens, UniProt P13945). Kind of test: DRUGMATRIX: Adrenergic beta3 radioligand binding (ligand: [125I] Cyanopindolol). It counts as cell membranes, Membrane. The conditions noted are these: hek293; Not Active = under 50% inhibition at 10 µM.
Test [8] is described as follows: DRUGMATRIX: Atrial Natriuretic Factor (ANF) radioligand binding (ligand: [125I] ANF (rat)). It is filed as cell membranes, Cavia porcellus, Dunkin-Hartley, Adrenal gland, Membrane. As to conditions: Not Active = under 50% inhibition at 10 µM.

Beta-3 adrenergic receptor, sequence (P13945 whole entry): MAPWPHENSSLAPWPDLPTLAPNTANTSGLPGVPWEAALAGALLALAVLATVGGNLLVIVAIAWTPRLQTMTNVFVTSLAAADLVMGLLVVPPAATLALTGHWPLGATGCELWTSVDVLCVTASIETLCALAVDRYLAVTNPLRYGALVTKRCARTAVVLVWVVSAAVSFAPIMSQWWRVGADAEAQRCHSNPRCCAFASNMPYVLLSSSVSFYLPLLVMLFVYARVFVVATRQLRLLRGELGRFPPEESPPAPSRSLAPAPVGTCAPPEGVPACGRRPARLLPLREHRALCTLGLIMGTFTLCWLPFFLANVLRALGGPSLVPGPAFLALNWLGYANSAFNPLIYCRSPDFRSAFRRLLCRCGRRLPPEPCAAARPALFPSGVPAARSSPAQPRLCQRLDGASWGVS

One may read the IC50 as the concentration that gives 50% inhibition. In general, Ki refers to the dissociation constant of the complex between target and ligand, obtained from inhibition or displacement. As to `CC1=C(CC(=O)O)c2cc(F)ccc2/C1=C\c1ccc([S+](C)[O-])cc1` (configuration not stated), the IC50 result in test [1], in [2], in [3] (cho-k1), in [4], in test [5] and in test [6] was “Not Active” throughout. For the same compound, the IC50 entry (on Substance-K receptor (cho); in test [7]; in test [8]) was “Not Active” throughout. Further, the Ki result in test [2], in test [5], in test [6] and in [8] was “Not Active” each time.
With `N[C@H](CSC(=S)NCc1ccccc1)C(=O)O`, the IC50 result in [1], in [2], in test [3] (cho-k1), in [4], in [5] and in test [6] was “Not Active” each time. Also, the IC50 entry (on Substance-K receptor (cho); in test [7]; in test [8]) was “Not Active” each time. Besides, the Ki result in [2], in [5], in [6] and in test [8] was “Not Active” each time.
Regarding `CC(=O)N[C@@H]1[C@H](Oc2c3cc4cc2Oc2ccc(cc2Cl)[C@@H](O[C@@H]2O[C@@H](CO)[C@@H](O)[C@H](O)[C@@H]2NC(C)=O)[C@@H]2NC(=O)[C@H](NC(=O)[C@@H]4NC(=O)[C@H]4NC(=O)[C@@H](Cc5ccc(c(Cl)c5)O3)NC(=O)[C@H](N)c3ccc(O)c(c3)Oc3cc(O)cc4c3)c3ccc(O)c(c3)-c3c(O[C@H]4O[C@H](CO)[C@@H](O)[C@@H](O)[C@@H]4O)cc(O)cc3[C@@H](C(=O)O)NC2=O)O[C@@H](CO)[C@@H](O)[C@@H]1O`, the IC50 entry in [1], in test [2], in test [3] (cho-k1), in [4], in [5] and in test [6] was “Not Active” in each case. The IC50 entry (against Substance-K receptor (cho); in test [7]; in test [8]) was “Not Active” each time. Also, the Ki result in test [2], in [5], in test [6] and in test [8] was “Not Active” in each case.
`Clc1ccc2c(c1)C(N1CCNCC1)=Nc1ccccc1O2` [AMOXAPINE]: the IC50 result (in test [1]; in test [3] (cho-k1); in [4]; against Substance-K receptor (cho); in test [7]) was “Not Active” throughout.
Turning to `COc1cc2c(c(OC)c1OC)-c1ccc(OC)c(=O)cc1[C@@H](NC(C)=O)CC2` [COLCHICINE], the IC50 result (in [1]; in [3] (cho-k1); in test [4]; against Substance-K receptor (cho); in test [7]) was “Not Active” each time.
On to `CN1CCC(=C2c3ccccc3C=Cc3ccccc32)CC1` [CYPROHEPTADINE], for which the IC50 entry (in test [1]; in test [3] (cho-k1); in test [4]; at Substance-K receptor (cho); in [7]) was “Not Active” in each case.
As for `CC/C(=C(/CC)c1ccc(O)cc1)c1ccc(O)cc1` [DIETHYLSTILBESTROL], the IC50 result is “Not Active” in test [1]; 17.7 µM in test [3] (read-out: IC50); “Not Active” in test [4]; 9.55 µM at Substance-K receptor (read-out: IC50); “Not Active” in test [7]. Besides, the Ki worked out at 8.87 µM in test [3] (read-out: Ki) and 3.18 µM at Substance-K receptor.
For the compound `CC(=O)N1CCN(c2ccc(OCC3COC(Cn4ccnc4)(c4ccc(Cl)cc4Cl)O3)cc2)CC1` (configuration not stated) [KETOCONAZOLE], the concentration for half-maximal inhibition (IC50) entry in [1], in [2], in [3] (cho-k1), in [4], in test [5] and in test [6] was “Not Active” throughout. Also, the results for the half-inhibitory concentration (IC50) (on Substance-K receptor (read-out: IC50); in [7]; in [8]) were 17.2 µM, “Not Active” and “Not Active”, respectively. The Ki result in test [2] is “Not Active”; in [5] it was “Not Active”; in test [6], “Not Active”; at Substance-K receptor, 5.75 µM; in test [8], “Not Active”.
`C=CCN1CC[C@]23c4c5ccc(O)c4O[C@H]2C(=O)CC[C@@]3(O)[C@H]1C5` [NALOXONE]: the IC50 entry (in test [1]; in test [3] (cho-k1); in test [4]; against Substance-K receptor (cho); in test [7]) was “Not Active” each time.
With `COCCOC(=O)C1=C(C)NC(C)=C(C(=O)OC(C)C)C1c1cccc([N+](=O)[O-])c1` (configuration not stated) [NIMODIPINE], the IC50 entry in test [1], in test [2], in [3] (cho-k1), in [4], in test [5] and in [6] was “Not Active” throughout. The IC50 entry (against Substance-K receptor (cho); in test [7]; in [8]) was “Not Active” throughout. Further, the Ki result in test [2], in [5], in [6] and in [8] was “Not Active” throughout.
With `CC(C)NCC(O)COc1cccc2ccccc12` (configuration not stated) [PROPRANOLOL], the IC50 entry (in test [1]; in [3] (cho-k1); in test [4]; at Substance-K receptor (cho)) was “Not Active” each time.
For the compound `CC(C)c1nc(CN(C)C(=O)N[C@H](C(=O)N[C@@H](Cc2ccccc2)C[C@H](O)[C@H](Cc2ccccc2)NC(=O)OCc2cncs2)C(C)C)cs1` [RITONAVIR], the IC50 result in test [1], in test [2], in [3] (cho-k1), in test [4], in [6] and in [7] was “Not Active” each time. In addition, the IC50 entry in test [8] was “Not Active”. The Ki result in [2], in test [6] and in test [8] was “Not Active” throughout.
